The text below walks through data of US8329751B2, “Compounds having aryl-sulphonamidic structure useful as metalloproteases inhibitors” (Bracco Imaging S.p.A., priority 2007, dated 2012).

One may read the IC50 as the concentration that gives 50% inhibition. Low values mean greater potency, high ones weaker potency. For orientation: inhibition means the change of the read-out against control, counted positive when it falls.

The structures appear in SMILES notation.

In one experiment the target is T1, MMP-2 (Homo sapiens, UniProt P08253).
T1 construct: supplied by Prof; Gillian Murphy (Department of Oncology, University of Cambridge, UK); not a commercial purchase
T1 sequence (P08253 110-660): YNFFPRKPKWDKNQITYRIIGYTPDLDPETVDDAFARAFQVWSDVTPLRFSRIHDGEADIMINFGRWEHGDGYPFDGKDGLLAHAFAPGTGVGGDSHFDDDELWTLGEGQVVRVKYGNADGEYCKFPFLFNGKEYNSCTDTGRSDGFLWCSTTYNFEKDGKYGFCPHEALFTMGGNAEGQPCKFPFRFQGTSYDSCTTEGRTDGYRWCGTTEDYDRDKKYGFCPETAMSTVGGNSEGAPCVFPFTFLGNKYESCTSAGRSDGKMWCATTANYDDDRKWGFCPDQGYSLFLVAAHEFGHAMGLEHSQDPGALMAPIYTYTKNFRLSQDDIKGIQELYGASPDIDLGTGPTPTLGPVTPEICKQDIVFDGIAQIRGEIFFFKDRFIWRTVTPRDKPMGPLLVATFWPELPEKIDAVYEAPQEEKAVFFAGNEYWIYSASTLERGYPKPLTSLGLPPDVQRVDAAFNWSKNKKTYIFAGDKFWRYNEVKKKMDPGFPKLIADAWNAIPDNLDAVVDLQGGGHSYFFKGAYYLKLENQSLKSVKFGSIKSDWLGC
As to the kind of experiment: MMP inhibition assay, fluorogenic substrate FS-6, MMP-2. Format: biochemical. The following applies: substrate FS-6 2 μM; enzyme and inhibitor incubated 4 h at 25° C. How it is done:
(§1) As reported therein, the inhibitory activity of the compounds of the invention was evaluated on the known fluorogenic substrate (Mca-Lys-Pro-Leu-Gly-Leu-Dpa-Ala-Arg-NH2), shortly referred to as FS-6 (see, as a reference, U. Neumann, Analytical Biochem. 2004, 328, 166-173).
(§2) Recombinant human pro-MMP-2 was supplied by Prof. Gillian Murphy (Department of Oncology, University of Cambridge, UK), while pro-MMP-13 and pro-MMP-14 were purchased from Calbiochem. […] Pro-MMP-14 was activated with trypsin 5 μg/ml for 15 min at 37° C. followed by soybean trypsin inhibitor (SBTI) 23, μg/ml. For assay measurements, the inhibitor stock solutions (DMSO, 100 mM) were further diluted, at seven different concentrations (0.01 nM-100 μM) for each MMP in the fluorimetric assay buffer (FAB: Tris 50 mM, pH=7.5, NaCl 150 mM, CaCl2 10 mM, Brij 35 0.05% and DMSO 1%). Activated enzyme (final concentration 2.9 nM for MMP-2, 1 nM for MMP-14, 0.33 nM for MMP-13) and inhibitor solutions were incubated in the assay buffer for 4 h at 25° C. After the addition of 200 μM solution of the fluorogenic substrate Mca-Lys-Pro-Leu-Gly-Leu-Dpa-Ala-Arg-NH2 (Bachem) (see, for a reference, Neumann, U.; Kubota, H.; Frei, K.; Ganu, V.; Leppert, D. Anal. Biochem. 2004, 328, 166) for all of the enzymes in DMSO (final concentration 2 μM), the hydrolysis was monitored every 15 sec. for 20 min recording the increase in fluorescence (λex=325 nm, λem=395 nm) using a Molecular Device SpectraMax Gemini XS plate reader.
(§3) The assays were performed in triplicate, in a total volume of 200 μl per well, in 96-well microtitre plates (Corning, black, NBS). Control wells lack inhibitor. The MMP inhibition activity was expressed in relative fluorescent units (RFU). Percent of inhibition was calculated from control reactions without the inhibitor. IC50 was determined using the formula: Vi/Vo=1/(1+[I]/IC50), where V, is the initial velocity of substrate cleavage in the presence of the inhibitor at concentration [I] and Vo is the initial velocity in the absence of the inhibitor. Results were analyzed using SoftMax Pro software and GraFit software.

The next experiment has as its target MMP-13 (Homo sapiens, UniProt P45452). Briefly: MMP inhibition assay, fluorogenic substrate FS-6, MMP-13. Format: biochemical. The following applies: substrate FS-6 2 μM; enzyme and inhibitor incubated 4 h at 25° C. The procedure:
as §1, §2, §3

Another experiment deals with T2, MMP-14 (Homo sapiens, UniProt P50281).
T2 construct: purchased Calbiochem
As to the kind of experiment: MMP inhibition assay, fluorogenic substrate FS-6, MMP-14. The following applies: substrate FS-6 2 μM; enzyme and inhibitor incubated 4 h at 25° C. It is filed as biochemical. The procedure:
as §1, §2, §3

In experiment [1] the test system is HUVEC. Briefly: HUVEC growth assay (crystal violet). Format: cell-based, human. How it is done: (§4) Compound (2), as a representative compound of the invention, was tested in an in vivo assay to evaluate its inhibitory activity on cancer cells. In particular, HUVEC cultures were purchased from Cascade Biologics (Portland, Oreg.) and cultured in gelatin-coated flasks using M199, 10% FCS (Fetal Calf Serum, Seromed, Milan, Italy) supplemented with FGF (Fibroblast Growth Factor, PeproTech, Inc., Rocky Hill, N.J.) (1 μg aFGF (acidic Fibroblast Growth Factor)+1 μg bFGF (basic Fibroblast Growth Factor)/100 ml medium), EGF (Epidermal Growth Factor) (1 μg/100 ml medium), heparin (10 mg/100 ml medium), (ICN Pharmaceuticals, Inc., Casta Mesa, Calif.), hydrocortisone (Sigma Chemical Co.) (0.1 mg/100 ml medium).
At day 0 cells were plated in 96 microwell plates at 1000 cells in 200 μl of complete culture medium. The inhibitor was added to the cells at different concentrations (10, 100 μM). HUVEC were quantified at 24, 48 and 72 hrs. Indirect optical density (OD) quantification was obtained fixing/staining the cells for 20 minutes with a crystal violet solution [see, for a reference, Fassina, G. et al., Clin Cancer Res, (2004) 10, 4865-73].

Experiment [2] relates to HUVEC. As to the kind of experiment: HUVEC chemoinvasion in Boyden chambers. It is filed as cell-based, human. The following applies: 100 μM, 5 hours. How it is done:
as §4, with “N.J.) (1 μg aFGF” left out, “[…].),” for “Casta Mesa, Calif.),”, “medium). HUVEC invasion was assessed in Boyden chambers (Costar) using serum-free fibroblast conditioned medium (FB-CM) as chemoattractants. Cells were treated with the inhibitor at the indicated doses and incubated at 37° C. for 5 hours in humidified atmosphere. Cell invasion was assessed by densitometric scanning of whole filter surface. Each test was performed in triplicate and repeated three times [see, for a reference, Albini, A., et al., Int. J. Dev. Biol., (2004), 48, 563-71].” for “medium).”

Experiment [3] concerns HUVEC. As to the kind of experiment: pro-apoptotic activity on HUVEC. It is filed as cell-based, human.

`CC(C)ON([C@H](CCNC(=O)c1ccccc1)C(=O)NO)S(=O)(=O)c1ccc(-c2ccccc2)cc1` [Compound 1b, (R)—N-(4-(hydroxyamino)-3-(N-isopropoxybiphenyl-4-ylsulfonamido)-4-oxobutyl)benzamide]: the half-maximal inhibitory concentration (IC50) against MMP-2 was determined as 1.48 ± 0.17 nM; against MMP-13 it was 4.6 ± 0.1 nM; on MMP-14, 94 nM.
In the same order, the values of `CC(C)ON([C@H](CCNS(C)(=O)=O)C(=O)NO)S(=O)(=O)c1ccc(-c2ccccc2)cc1` [Compound 1c, (R)—N-hydroxy-2-(N-isopropoxybiphenyl-4-ylsulfonamido)-4-(methylsulfonamido)butanamide] are 0.98 ± 0.12 nM, 2.2 ± 0.3 nM and 95.5 ± 4.5 nM.
With `CC(=O)NCC[C@H](C(=O)NO)N(OC(C)C)S(=O)(=O)c1ccc(-c2ccccc2)cc1` [Compound 1d, (R)-4-acetamido-N-hydroxy-2-(N-isopropoxybiphenyl-4-ylsulfonamido)butanamide], the IC50 against MMP-2 came out at 0.33 ± 0.02 nM; on MMP-13, 0.68 ± 0.1 nM; on MMP-14, 41.1 ± 1.16 nM.
On to `CC(C)ON([C@H](CCNC(=O)Cc1ccccc1)C(=O)NO)S(=O)(=O)c1ccc(-c2ccccc2)cc1` [Compound 1e, (R)—N-hydroxy-2-(N-isopropoxybiphenyl-4-ylsulfonamido)-4-(2-phenylacetamido)butanamide], for which the results for the IC50 at MMP-2, on MMP-13 and on MMP-14 were 1.43 ± 0.1 nM, 1.4 ± 0.1 nM and 80.7 ± 5.4 nM, respectively.
Turning to `COc1ccc(-c2ccc(S(=O)(=O)N(OC(C)C)[C@H](CCNC(C)=O)C(=O)NO)cc2)cc1` [Compound 1f, (R)-4-acetamido-N-hydroxy-2-(N-isopropoxy-4′-methoxybiphenyl-4-ylsulfonamido)butanamide], the IC50 came out at 0.13 ± 0.03 nM against MMP-2, 0.58 ± 0.04 nM against MMP-13 and 23.5 ± 2.2 nM against MMP-14.
Take `COc1ccc(-c2ccc(S(=O)(=O)N(OC(C)C)[C@H](CCNC(=O)Cc3ccccc3)C(=O)NO)cc2)cc1` [Compound 1g, (R)—N-hydroxy-2-(N-isopropoxy-4′-methoxybiphenyl-4-ylsulfonamido)-4-(2-phenylacetamido)butanamide]: the IC50 was found to be 0.37 ± 0.06 nM against MMP-2, 0.25 ± 0.02 nM against MMP-13 and 24.7 ± 2.2 nM against MMP-14.
For `COc1ccc(-c2ccc(S(=O)(=O)N(OCCOCCN3CCNCC3)[C@H](CCNC(=O)OCc3ccccc3)C(=O)NO)cc2)cc1` [Compound 1j], in that order: 0.3 ± 0.03 nM, 0.2 ± 0.01 nM and 27 ± 1 nM.
`COc1ccc(-c2ccc(S(=O)(=O)N(OC(C)C)[C@H](CCN3C(=O)c4ccccc4C3=O)C(=O)NO)cc2)cc1` [Compound 2, (R)-4-(1,3-dioxoisoindolin-2-yl)-N-hydroxy-2-(N-isopropoxy-4′-methoxybiphenyl-4-ylsulfonamido)butanamide]: the values for the IC50 against MMP-2, on MMP-13 and against MMP-14 were 0.67 ± 0.06 nM, 0.19 ± 0.01 nM and 3.9 ± 0.18 nM, respectively. In the experiment on HUVEC [1] (10 and 100 μM, 24, 48 and 72 hrs), the “cell growth inhibition as compared to untreated controls” value was “time and dose dependent cell growth inhibition”. In addition, in the experiment on HUVEC [1] (Homo sapiens, 100 μM, starting from 48 hours of treatment, read-out: cell growth inhibition), the inhibition at 100 µM came to 100%. In addition, in the experiment on HUVEC [2], the “inhibitory activity on endothelial cell migration through a reconstituted basement membrane” value was “significant inhibitory activity”. In addition, in the experiment with HUVEC [3] (at 48 hours), the “induction of programmed cell death” value is listed as “ability to induce programmed cell death”. In addition, the pro-apoptotic activity entry in the experiment with HUVEC [3] (high dose (100 μM)) was “some pro-apoptotic activity”.
Consider `CC(C)ON([C@H](CCNC(=O)OCc1ccccc1)C(=O)NO)S(=O)(=O)c1ccc(-c2ccccc2)cc1` [Reference Compound (5b), reference compound], for which the 50% inhibitory concentration (IC50) at MMP-2 stood at 8.4 ± 0.1 nM; on MMP-13 it was 4.4 ± 0.5 nM; against MMP-14, 240 ± 19 nM.
